# In patent US12312352B2, “Use of a DPP-4 inhibitor in SIRS and/or sepsis” (Boehringer ingelheim International GmbH, priority 2012, dated 2025):
# Tests used:
# septic rats = test: Survival of septic rats (LPS 10 mg/kg i.p.) with and without linagliptin treatment; format: in vivo, female Wistar rats; conditions: 24 hours after LPS 10 mg/kg i.p.; linagliptin diet from 2 days before LPS; LPS alone about 28%; p=0.015 LPS vs. LPS+Linagliptin; preliminary data
# Experimental: Animals are injected at day 2 with 10 mg/kg LPS (lipopolysaccharide) i.p. and observed for 4 additional days.
# It should be noted that the survival curve only represents preliminary data (“pseudo Kaplan-Meier-curve”) since the exact time point of death of the rats is not assessed. The female Wistar rats are injected with LPS in the morning, monitored during the day and transferred back to the stable in the evening. Deaths are registered in the morning of the next day.
# [1] = Mean plasma concentration of linagliptin in rats on linagliptin diet; format: in vivo; conditions: diet containing 0.083 mg/kg linagliptin
# septic animals = conditions: cited from earlier work
# [2] = Safety and tolerability in people with type 2 diabetes
# septic mice = test: Survival in experimental sepsis, first study: LPS 20 mg/kg i.p. on Day 6 of 7 days treatment; conditions: linagliptin 5 mg/kg/d in drinking water (p=0.067), liraglutide 0.2 mg/kg/d s.c. injection (p=0.005), placebo/LPS 100% die within 48 h
# [3] = Pharmacokinetics of BI 1356 after multiple oral doses (1, 2.5, 5 or 10 mg once daily for 12 days) in patients with type 2 diabetes
compound,measurement,setting,value
CC#CCn1c(N2CCC[C@@H](N)C2)nc2c1c(=O)n(Cc1nc(C)c3ccccc3n1)c(=O)n2C [linagliptin],mortality,septic rats,No mortality
same,mean plasma concentration,[1],50 to 150 nM
same,"vascular dysfunction, vascular inflammation and aortic, cardiac and blood oxidative stress",septic animals; experimental sepsis model,"improves vascular dysfunction and vascular inflammation as well as aortic, cardiac, and blood oxidative stress"
same,immune cell infiltration into the vascular tissue,"septic animals; septic animals, previous studies",prevention of immune cell infiltration into the vascular tissue
same,safety and tolerability,[2],placebo-like
same,survival vs placebo/LPS group,septic mice,trend for a higher survival rate
same,form and route of excretion,"[3]; human, in vivo",primarily excreted unchanged via the bile
same,main organ of excretion,[3]; therapeutic oral dose levels,mainly excreted via the liver
